Results reported in patent publication US20130281398A1, “TREATMENT OF DISEASES BY EPIGENETIC REGULATION” (RVX Therapeutics Inc., priority 2012, published 2013).

How the values were obtained:
IL-6 = conditions: in vivo; cited from earlier work
Human AML MV-4-11 cells = experiment: Inhibition of cell proliferation in human AML MV-4-11 cells; type: cell-based; set-up: key: Active: Compounds with an IC50 value less than 30 uM were deemed to be active; conditions: 72 hours, CellTiter Aqueous One
Experimental: MV4-11 cells: 96-well plates were seeded with 5×10^4 cells per well of exponentially growing human AML MV-4-11 (CRL-9591) cells and immediately treated with two-fold dilutions of test compounds, ranging from 30 μM to 0.2 μM. Triplicate wells were used for each concentration, as well as a media only and three DMSO control wells. The cells and compounds were incubated at 37° C., 5% CO2 for 72 hours before adding 20 μL of the CellTiter Aqueous One Solution (Promega) to each well and incubating at 37° C., 5% CO2 for an additional 3-4 hours. The absorbance was taken at 490 nm in a spectrophotometer and the percentage of proliferation relative to DMSO-treated cells was calculated after correction from the blank well. IC50 were calculated using the GraphPad Prism software.

Brd4 bromodomain 1 = target: T1, Brd4 bromodomain 1 (Homo sapiens, UniProt O60885); experiment: TR-FRET inhibition of tetra-acetylated histone H4 binding to Brd4 bromodomain 1; conditions: tetra-acetylated histone H4 peptide and Brd4 bromodomain 1, 2 hours at room temperature
T1 construct: Illustrative results with the first bromodomain of Brd4; made in house; host or cells: E. coli BL21(DE3)
Experimental: Proteins were cloned and overexpressed with a N-terminal 6×His tag, then purified by nickel affinity followed by size exclusion chromatography. Briefly, E. coli BL21(DE3) cells were transformed with a recombinant expression vector encoding N-terminally Nickel affinity tagged bromodomains from Brd2, Brd3, Brd4. Cell cultures were incubated at 37° C. with shaking to the appropriate density and induced overnight with IPTG. The supernatant of lysed cells was loaded onto Ni-IDA column for purification. Eluted protein was pooled, concentrated and further purified by size exclusion chromatography. Fractions representing monomeric protein are pooled, concentrated, aliquoted, and frozen at −80° C. for use in subsequent experiments.
Binding of tetra-acetylated histone H4 and BET bromodomains was confirmed by a Time Resolved Fluorescence Resonance Energy Transfer (TR-FRET) method. N-terminally His-tagged bromodomains (200 nM) and biotinylated tetra-acetylated histone H4 peptide (25-50 nM, Millipore) were incubated in the presence of Europium Cryptate-labeled streptavidin (Cisbio Cat. #610SAKLB) and XL665-labeled monoclonal anti-His antibody (Cisbio Cat. #61 HISXLB) in a white 96 well microtiter plate (Greiner). For inhibition assays, serially diluted test compound was added to these reactions in a 0.2% final concentration of DMSO. Final buffer concentrations were 30 mM HEPES pH 7.4, 30 mM NaCl, 0.3 mM CHAPS, 20 mM phosphate pH 7.0, 320 mM KF, 0.08% BSA). After 2 hours incubation at room temperature, the fluorescence by FRET was measured at 665 and 620 nm by a SynergyH4 plate reader (Biotek). The binding inhibitory activity was shown by a decrease in 665 nm fluorescence relative to 620 nm. IC50 values were determined from a dose response curve.

c-myc = experiment: Inhibition of c-myc expression (mRNA, real-time PCR) in MV4-11 cells; type: cell-based; set-up: key: Active: Compounds with an IC50 value less than 30 uM were deemed to be active; conditions: c-myc mRNA in human AML MV4-11 cells, 3 hours incubation
Experimental: MV4-11 cells (2.5×10^4 cells) were plated in 96 well U-bottom plates with test compound or DMSO (0.1%), and incubated for 3 hours at 37° C. Cells were then harvested by centrifugation, lysed, and mRNA was isolated using the mRNA catcher plus kit (Invitrogen). Reverse transcription of the mRNA and duplex amplification of the c-myc and cyclophilin cDNAs was performed using the RNA Ultrasense kit (Invitrogen) and a ViiA7 real-time PCR machine (Applied Biosystems). IC50 values were determined from a dose response curve.

multiple myeloma = conditions: associated with cell cycle arrest and cellular senescence, Delmore et al. (2011); cited from earlier work
[1] = tested on: NUT (nuclear protein in testis) midline carcinoma (NMC); conditions: murine xenograft models of NMC; Filippakopoulos et al. (2010); cited from earlier work
[2] = tested on: bacterial-induced inflammation and sepsis; conditions: murine model; Lamotte et al. (2012); cited from earlier work

SMILES	FRET activity (<50 uM) (Brd4 bromodomain 1)	further results
CCNC(=O)C[C@@H]1N=C(c2ccc(Cl)cc2)c2cc(OC)ccc2-n2c(C)nnc21 [I-BET]		IL-6 expression (IL-6): decrease IL-6 expression
COc1cc(OC)c2c(=O)[nH]c(-c3cc(C)c(CNC(C)=O)c(C)c3)nc2c1 [Example 32, N-(4-(5,7-dimethoxy-4-oxo-3,4-dihydroquinazolin-2-yl)-2,6-dimethylbenzyl)acetamide]	Active	cell proliferation activity (<30 uM) (Human AML MV-4-11 cells): Inactive; c-myc activity (<30 uM) (c-myc): Inactive
Cc1sc2c(c1C)C(c1ccc(Cl)cc1)=N[C@@H](CC(=O)OC(C)(C)C)c1nnc(C)n1-2 [JQ1]		antiproliferative effect (multiple myeloma): potent antiproliferator; antitumor activity [1]: potent antitumor activity
COc1cc(OC)c2c(=O)[nH]c(-c3cc(C)c(OCCNC=O)c(C)c3)nc2c1 [Example 42, N-(2-(4-(5,7-dimethoxy-4-oxo-3,4-dihydroquinazolin-2-yl) 2,6-dimethylphenoxy)ethyl)formamide]	Active	
COc1cc(OC)c2c(=O)[nH]c(-c3cc(C)c(OCCNc4nc(OC)cc(OC)n4)c(C)c3)nc2c1 [Example 49, 2-(4-(2-(4,6-dimethoxypyrimidin-2-ylamino)ethoxy)-3,5-dimethylphenyl)-5,7-dimethoxyquinazolin-4(3H)-one]	Inactive	
COc1cc(OC)c2c(=O)[nH]c(-c3cc(C)c(OCCNC#N)c(C)c3)nc2c1 [Example 45, N-(2-(4-(5,7-dimethoxy-4-oxo-3,4-dihydroquinazolin-2-yl) 2,6-dimethylphenoxy)ethyl)cyanamide]	Active	
COc1cc2c(cc1-c1c(C)noc1C)ncc1[nH]c(=O)n([C@H](C)c3ccccn3)c12 [I-BET151]		bacterial-induced inflammation and sepsis [2]: suppress bacterial-induced inflammation and sepsis; IL-6 expression (IL-6): decrease IL-6 expression
COc1cc(OC)c2c(=O)[nH]c(-c3cc(C)c(OCCNC(C)C)c(C)c3)nc2c1 [Example 38, 2-(4-(2-(isopropylamino)ethoxy)-3,5-dimethylphenyl)-5,7-dimethoxyquinazolin-4(3H)-one]	Active	cell proliferation activity (<30 uM) (Human AML MV-4-11 cells): Active; c-myc activity (<30 uM) (c-myc): Active
COCCOc1cc(OC)c2c(=O)[nH]c(-c3cc(C)c(O)c(C)c3)nc2c1 [Example 4, 2-(4-hydroxy-3,5-dimethyl-phenyl)-5-methoxy-7-(2-methoxy-ethoxy)-3H-quinazolin-4-one]	Active	
COc1cc(OC)c2c(=O)[nH]c(-c3cc(C)c(OCC(O)CO)c(C)c3)nc2c1 (stereo not drawn) [Example 16, 2-[4-(2,3-Dihydroxy-propoxy)-3,5-dimethyl-phenyl]-5,7-dimethoxy-3H-quinazolin-4-one]	Active	
COc1cc(OC)c2c(=O)[nH]c(-c3cc(C)c(OCCCCO)c(C)c3)nc2c1 [Example 25, 2-[4-(4-hydroxy-butoxy)-3,5-dimethyl-phenyl]-5,7-dimethoxy-3H-quinazolin-4-one]	Active	
COc1ccc(NC(=O)COc2c(C)cc(-c3nc4cc(OC)cc(OC)c4c(=O)[nH]3)cc2C)cc1 [Example 23, 2-[4-(5,7-Dimethoxy-4-oxo-3,4-dihydro-quinazolin-2-yl)-2,6-dimethyl-phenoxy]-N-(4-methoxy-phenyl)-acetamide]	Active	
COc1cc(OC)c2c(=O)[nH]c(-c3cc(C)c(OCCN(C)C)c(C)c3)nc2c1 [Example 40, 2-(4-(2-(dimethylamino)ethoxy)-3,5-dimethylphenyl)-5,7-dimethoxyquinazolin-4(3H)-one]	Active	
COc1cc(OCCOCc2ccccc2)cc2nc(-c3ccc4oc(CO)cc4c3)[nH]c(=O)c12 [Example 21, 7-(2-benzyloxy-ethoxy)-2-(2-hydroxymethyl-benzofuran-5-yl)-5-methoxy-3H-quinazolin-4-one]	Inactive	
Cc1cc(-c2nc3ccc(Nc4ccccn4)cc3c(=O)[nH]2)cc(C)c1O [Example 9, 2-(4-hydroxy-3,5-dimethyl-phenyl)-6-(pyridin-2-ylamino)-3H-quinazolin-4-one]	Inactive	
COc1cc(OC)c2c(=O)[nH]c(-c3cc(C)c(CNC(C)=O)c(C)c3)nc2n1 [Example 33, N-[4-(5,7-dimethoxy-4-oxo-3,4-dihydro-pyrido[2,3-d]pyrimidin-2-yl)-2,6-dimethyl-benzyl]-acetamide]	Active	
Cc1cc(-c2nc3cc(F)cc(F)c3c(=O)[nH]2)cc(C)c1OCCO [Example 14, 5,7-difluoro-2-(4-(2-hydroxyethoxy)-3,5-dimethylphenyl)quinazolin-4(3H)-one]	Inactive	
Cc1cc(-c2nc3ccc(CNS(C)(=O)=O)cc3c(=O)[nH]2)cc(C)c1O [Example 11, N-((2-(4-hydroxy-3,5-dimethylphenyl)-4-oxo-3,4-dihydroquinazolin-6-yl)methyl)methanesulfonamide]	Active	
